According to PubChem BioAssay (NCI):
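GI50 is the concentration that inhibits growth by half. TGI denotes the concentration required for complete inhibition of growth.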

Experiments:
Test in all cases: growth of human tumour cells (NCI), 384-well format
HCT-116 colon = test system: HCT-116 colon
KM12 colon = test system: KM12 colon
OVCAR-8 ovarian = test system: OVCAR-8 ovarian
MDA-MB-231 breast = test system: MDA-MB-231 breast
NCI-H226 lung = test system: NCI-H226 lung
OVCAR-5 ovarian = test system: OVCAR-5 ovarian
NCI-H322M lung = test system: NCI-H322M lung
NCI/ADR-RES ovarian = test system: NCI/ADR-RES ovarian
HS 578T breast = test system: HS 578T breast
DU-145 prostate = test system: DU-145 prostate
EKVX NSCLC = test system: EKVX NSCLC
NCI-H23 lung = test system: NCI-H23 lung
OVCAR-3 ovarian = test system: OVCAR-3 ovarian
BT-549 breast = test system: BT-549 breast
MALME-3M melanoma = test system: MALME-3M melanoma
IGROV1 ovarian = test system: IGROV1 ovarian
HOP-92 NSCLC = test system: HOP-92 NSCLC
SF-268 CNS = test system: SF-268 CNS
UO-31 renal = test system: UO-31 renal
SK-MEL-5 melanoma = test system: SK-MEL-5 melanoma
MDA-MB-435 melanoma = test system: MDA-MB-435 melanoma
OVCAR-4 ovarian = test system: OVCAR-4 ovarian
T-47D breast = test system: T-47D breast
SK-MEL-28 melanoma = test system: SK-MEL-28 melanoma
A498 renal = test system: A498 renal
CAKI-1 renal = test system: CAKI-1 renal
HCT-15 colon = test system: HCT-15 colon
SNB-19 CNS = test system: SNB-19 CNS
U251 glioblastoma = test system: U251 glioblastoma
SF-539 CNS = test system: SF-539 CNS
RPMI-8226 leukemia = test system: RPMI-8226 leukemia
SK-OV-3 ovarian = test system: SK-OV-3 ovarian
MDA-MB-468 breast = test system: MDA-MB-468 breast
786-0 renal = test system: 786-0 renal
COLO 205 colon = test system: COLO 205 colon
UACC-257 melanoma = test system: UACC-257 melanoma
SN12C renal = test system: SN12C renal
NCI-H460 NSCLC = test system: NCI-H460 NSCLC
MOLT-4 leukemia = test system: MOLT-4 leukemia
UACC-62 melanoma = test system: UACC-62 melanoma
NCI-H522 lung = test system: NCI-H522 lung
ACHN renal = test system: ACHN renal
SNB-75 CNS = test system: SNB-75 CNS
TK-10 renal = test system: TK-10 renal
RXF 393 renal = test system: RXF 393 renal
MCF7 breast = test system: MCF7 breast
SW-620 colon = test system: SW-620 colon
SF-295 CNS = test system: SF-295 CNS
HT29 colon = test system: HT29 colon
PC-3 prostate = test system: PC-3 prostate
A549 NSCLC = test system: A549 NSCLC
M14 melanoma = test system: M14 melanoma
K-562 leukemia = test system: K-562 leukemia
HCC-2998 colon = test system: HCC-2998 colon
HOP-62 NSCLC = test system: HOP-62 NSCLC
CCRF-CEM leukemia = test system: CCRF-CEM leukemia
HL-60(TB) leukemia = test system: HL-60(TB) leukemia
LOX IMVI melanoma = test system: LOX IMVI melanoma

COc1cc2cc(C(=O)CCC(=O)O)sc2cc1OC
GI50 (HCT-116 colon): > 100 µM
TGI (HCT-116 colon): > 100 µM
GI50 (KM12 colon): > 100 µM
TGI (KM12 colon): > 100 µM
GI50 (OVCAR-8 ovarian): > 100 µM
TGI (OVCAR-8 ovarian): > 100 µM
GI50 (MDA-MB-231 breast): > 100 µM
TGI (MDA-MB-231 breast): > 100 µM
GI50 (NCI-H226 lung): 19.5 µM
TGI (NCI-H226 lung): 74.4 µM
GI50 (OVCAR-5 ovarian): > 100 µM
TGI (OVCAR-5 ovarian): > 100 µM
GI50 (NCI-H322M lung): > 100 µM
TGI (NCI-H322M lung): > 100 µM
GI50 (NCI/ADR-RES ovarian): > 100 µM
TGI (NCI/ADR-RES ovarian): > 100 µM
GI50 (HS 578T breast): > 100 µM
TGI (HS 578T breast): > 100 µM
GI50 (DU-145 prostate): > 100 µM
TGI (DU-145 prostate): > 100 µM
GI50 (EKVX NSCLC): > 100 µM
TGI (EKVX NSCLC): > 100 µM
GI50 (NCI-H23 lung): > 100 µM
TGI (NCI-H23 lung): > 100 µM
GI50 (OVCAR-3 ovarian): > 100 µM
TGI (OVCAR-3 ovarian): > 100 µM
GI50 (BT-549 breast): > 100 µM
TGI (BT-549 breast): > 100 µM
GI50 (MALME-3M melanoma): > 100 µM
TGI (MALME-3M melanoma): > 100 µM
GI50 (IGROV1 ovarian): > 100 µM
TGI (IGROV1 ovarian): > 100 µM
GI50 (HOP-92 NSCLC): > 100 µM
TGI (HOP-92 NSCLC): > 100 µM
GI50 (SF-268 CNS): > 100 µM
TGI (SF-268 CNS): > 100 µM
GI50 (UO-31 renal): > 100 µM
TGI (UO-31 renal): > 100 µM
GI50 (SK-MEL-5 melanoma): > 100 µM
TGI (SK-MEL-5 melanoma): > 100 µM
GI50 (MDA-MB-435 melanoma): > 100 µM
TGI (MDA-MB-435 melanoma): > 100 µM
GI50 (OVCAR-4 ovarian): > 100 µM
TGI (OVCAR-4 ovarian): > 100 µM
GI50 (T-47D breast): > 100 µM
TGI (T-47D breast): > 100 µM
GI50 (SK-MEL-28 melanoma): > 100 µM
TGI (SK-MEL-28 melanoma): > 100 µM
GI50 (A498 renal): 33.6 µM
TGI (A498 renal): > 100 µM
GI50 (CAKI-1 renal): > 100 µM
TGI (CAKI-1 renal): > 100 µM
GI50 (HCT-15 colon): > 100 µM
TGI (HCT-15 colon): > 100 µM
GI50 (SNB-19 CNS): > 100 µM
TGI (SNB-19 CNS): > 100 µM
GI50 (U251 glioblastoma): > 100 µM
TGI (U251 glioblastoma): > 100 µM
GI50 (SF-539 CNS): > 100 µM
TGI (SF-539 CNS): > 100 µM
GI50 (RPMI-8226 leukemia): > 100 µM
TGI (RPMI-8226 leukemia): > 100 µM
GI50 (SK-OV-3 ovarian): > 100 µM
TGI (SK-OV-3 ovarian): > 100 µM
GI50 (MDA-MB-468 breast): > 100 µM
TGI (MDA-MB-468 breast): > 100 µM
GI50 ([…]-0 renal): > 100 µM
TGI (786-0 renal): > 100 µM
GI50 (COLO 205 colon): > 100 µM
TGI (COLO 205 colon): > 100 µM
GI50 (UACC-257 melanoma): > 100 µM
TGI (UACC-257 melanoma): > 100 µM
GI50 (SN12C renal): > 100 µM
TGI (SN12C renal): > 100 µM
GI50 (NCI-H460 NSCLC): > 100 µM
TGI (NCI-H460 NSCLC): > 100 µM
GI50 (MOLT-4 leukemia): > 100 µM
TGI (MOLT-4 leukemia): > 100 µM
GI50 (UACC-62 melanoma): > 100 µM
TGI (UACC-62 melanoma): > 100 µM
GI50 (NCI-H522 lung): > 100 µM
TGI (NCI-H522 lung): > 100 µM
GI50 (ACHN renal): > 100 µM
TGI (ACHN renal): > 100 µM
GI50 (SNB-75 CNS): > 100 µM
TGI (SNB-75 CNS): > 100 µM
GI50 (TK-10 renal): > 100 µM
TGI (TK-10 renal): > 100 µM
GI50 (RXF 393 renal): 25 µM
TGI (RXF 393 renal): > 100 µM
GI50 (MCF7 breast): > 100 µM
TGI (MCF7 breast): > 100 µM
GI50 (SW-620 colon): > 100 µM
TGI (SW-620 colon): > 100 µM
GI50 (SF-295 CNS): > 100 µM
TGI (SF-295 CNS): > 100 µM
GI50 (HT29 colon): > 100 µM
TGI (HT29 colon): > 100 µM
GI50 (PC-3 prostate): > 100 µM
TGI (PC-3 prostate): > 100 µM
GI50 (A549 NSCLC): > 100 µM
TGI (A549 NSCLC): > 100 µM
GI50 (M14 melanoma): > 100 µM
TGI (M14 melanoma): > 100 µM
GI50 (K-562 leukemia): > 100 µM
TGI (K-562 leukemia): > 100 µM
GI50 (HCC-2998 colon): > 100 µM
TGI (HCC-2998 colon): > 100 µM
GI50 (HOP-62 NSCLC): > 100 µM
TGI (HOP-62 NSCLC): > 100 µM
GI50 (CCRF-CEM leukemia): > 100 µM
TGI (CCRF-CEM leukemia): > 100 µM
GI50 (HL-60(TB) leukemia): 22.7 µM
TGI (HL-60(TB) leukemia): 45.8 µM
GI50 (LOX IMVI melanoma): > 100 µM
TGI (LOX IMVI melanoma): > 100 µM
